Source: article PMC5476731, “Molecular Basis of N,N-Diethyl-3-Methylbenzamide (DEET) in Repelling the Common Bed Bug, Cimex lectularius” (Frontiers in Physiology, 2017)

Key:
Assay in all cases: two-electrode voltage clamp, Xenopus oocytes
Type in all cases: cell-based, Cimex lectularius
OR36/ORCO = test system: T1, OR36/ORCO; conditions: agonist; co-expressed ORCO; -80 mV; pH 7.6 Ringer; text rounds to 7.1 × 10^−6
T1 construct: cRNA (pT7Ts vector) co-injected with ORCO into Xenopus laevis oocytes; with Odorant receptor coreceptor

OR20/ORCO = test system: T2, OR20/ORCO; conditions: agonist; co-expressed ORCO; -80 mV; pH 7.6 Ringer; text rounds to 7.5 × 10^−6
T2 construct: cRNA (pT7Ts vector) co-injected with ORCO into Xenopus laevis oocytes; with Odorant receptor coreceptor

OR37/ORCO = test system: T3, OR37/ORCO; conditions: agonist; co-expressed ORCO; -80 mV; pH 7.6 Ringer; text b25 prints 6.5 × 10^−6 (discrepant)
T3 construct: cRNA (pT7Ts vector) co-injected with ORCO into Xenopus laevis oocytes; with Odorant receptor coreceptor

## CCN(CC)C(=O)c1cccc(C)c1 [DEET, N,N-Diethyl-3-Methylbenzamide]
OR36/ORCO
  EC50: 7.096 × 10^−6 v/v
OR20/ORCO
  EC50: 7.468 × 10^−6 v/v
OR37/ORCO
  EC50: 6.684 × 10^−6 v/v
